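Test compounds were applied to cells in 96-well plates for 48 hours at 5 doses. The concentration for 50% growth inhibition is given as GI50. TGI is the concentration that stops growth completely.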
Assays:
Assay in all cases: NCI tumour cell line growth inhibition, 48 h
[1] = tested on: HT29 colon
[2] = tested on: DU-145 prostate
[3] = tested on: LOX IMVI melanoma
[4] = tested on: MCF7 breast
[5] = tested on: SW-620 colon
[6] = tested on: HOP-92 NSCLC
[7] = tested on: MALME-3M melanoma
[8] = tested on: SK-MEL-5 melanoma
[9] = tested on: UACC-62 melanoma
[10] = tested on: SF-539 CNS
[11] = tested on: CCRF-CEM leukemia
[12] = tested on: A498 renal
[13] = tested on: SF-268 CNS
[14] = tested on: K-562 leukemia
[15] = tested on: BT-549 breast
[16] = tested on: OVCAR-3 ovarian
[17] = tested on: MDA-MB-231 breast
[18] = tested on: MDA-MB-435
[19] = tested on: OVCAR-5 ovarian
[20] = tested on: OVCAR-8 ovarian
[21] = tested on: NCI/ADR-RES ovarian
[22] = tested on: UACC-257 melanoma
[23] = tested on: NCI-H460 lung
[24] = tested on: HCT-15 colon
[25] = tested on: UO-31 renal
[26] = tested on: OVCAR-4 ovarian
[27] = tested on: SNB-75 CNS

In the case of COc1cc(-c2ccc3ncnc(NCc4ccccc4)c3c2)cnc1OC, the GI50 [1] is reported as 5.02 µM, the TGI [1] is reported as > 100 µM and the GI50 [2] is reported as 3.43 µM. The TGI [2] was > 100 µM, the GI50 [3] was 4.19 µM and the TGI [3] was 27.4 µM. It also gave a GI50 [4] of 0.658 µM, a TGI [4] of 19 µM and a GI50 [5] of 34.2 µM. The TGI [5] was > 100 µM, the GI50 [6] was 0.544 µM and the TGI [6] was 4.82 µM. The GI50 [7] was 9.59 µM, the TGI [7] was > 100 µM and the GI50 [8] was 10.7 µM. For the same molecule, the TGI [8] was > 100 µM, the GI50 [9] was 2.97 µM and the TGI [9] was > 100 µM. For the same molecule, the GI50 [10] was 4.8 µM, the TGI [10] was > 100 µM and the GI50 [11] was 4 µM. The TGI [11] was > 100 µM, the GI50 [12] was 1.78 µM and the TGI [12] was 6.64 µM. The GI50 [13] was 6.43 µM, the TGI [13] was > 100 µM and the GI50 [14] was 51 µM. The TGI [14] was > 100 µM, the GI50 [15] was 3.25 µM and the TGI [15] was > 100 µM. For the same molecule, the GI50 [16] was 3.94 µM, the TGI [16] was > 100 µM and the GI50 [17] was 4.72 µM. For the same molecule, the TGI [17] was > 100 µM, the GI50 [18] was 56 µM and the TGI [18] was > 100 µM. For the same molecule, the GI50 [19] was 2.97 µM, the TGI [19] was > 100 µM and the GI50 [20] was 9.42 µM. For the same molecule, the TGI [20] was > 100 µM, the GI50 [21] was 7.97 µM and the TGI [21] was > 100 µM. For the same molecule, the GI50 [22] was 69.8 µM, the TGI [22] was > 100 µM and the GI50 [23] was 5.83 µM. For the same molecule, the TGI [23] was > 100 µM, the GI50 [24] was 5.68 µM and the TGI [24] was > 100 µM. For the same molecule, the GI50 [25] was 1.45 µM, the TGI [25] was > 100 µM and the GI50 [26] was 62.7 µM. The TGI [26] was > 100 µM, the GI50 [27] was 0.655 µM and the TGI [27] was 6.87 µM.
